By IC50 is commonly meant the concentration that gives 50% inhibition.

Counter-ions that a name gives are not always drawn. Bounds are passed on as bounds.

This passage reports IC50 results from patent EP1611112B1, “ISOXAZOLE COMPOUNDS AS INHIBITORS OF HEAT SHOCK PROTEINS” (Vernalis (Cambridge) Limited, priority 2003, dated 2004).

T1 sequence (P08238 whole entry): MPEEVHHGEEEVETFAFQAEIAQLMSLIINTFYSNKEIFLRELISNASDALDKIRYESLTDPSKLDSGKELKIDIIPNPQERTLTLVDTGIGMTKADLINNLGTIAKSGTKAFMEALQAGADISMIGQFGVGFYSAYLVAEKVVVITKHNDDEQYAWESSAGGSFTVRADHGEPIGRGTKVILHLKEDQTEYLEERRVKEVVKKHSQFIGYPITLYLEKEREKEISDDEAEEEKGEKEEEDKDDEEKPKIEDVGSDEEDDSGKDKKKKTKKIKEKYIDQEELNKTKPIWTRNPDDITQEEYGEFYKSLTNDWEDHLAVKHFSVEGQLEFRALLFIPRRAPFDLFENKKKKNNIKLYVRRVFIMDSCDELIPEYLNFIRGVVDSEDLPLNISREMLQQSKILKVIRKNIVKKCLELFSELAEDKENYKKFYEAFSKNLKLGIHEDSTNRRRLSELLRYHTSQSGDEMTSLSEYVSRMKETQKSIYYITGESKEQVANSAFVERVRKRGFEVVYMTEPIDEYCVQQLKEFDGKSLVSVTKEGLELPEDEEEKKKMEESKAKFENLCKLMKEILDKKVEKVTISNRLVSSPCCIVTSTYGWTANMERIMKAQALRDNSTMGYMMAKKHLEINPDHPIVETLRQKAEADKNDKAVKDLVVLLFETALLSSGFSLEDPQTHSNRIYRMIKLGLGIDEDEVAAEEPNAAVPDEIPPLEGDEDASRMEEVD

One assay addresses T1, human full-length HSP90 (Homo sapiens, UniProt P08238).
T1 construct: E. coli expressed human full-length HSP90 protein; made in house; host or cells: E. coli
The assay is described as follows: Fluorescence Polarisation Assay (displacement of fluorescein-labelled probe RBT0045864-FAM). Format: binding. As to conditions: Fluorescence Polarisation Assay, activity range. An excerpt: A Fluorescence Polarization_assay was also employed for the evaluation of some of the compounds of the Examples:
Fluorescence polarization {also known as fluorescence anisotropy} measures the rotation of a fluorescing species in solution, where the larger molecule the more polarized the fluorescence emission.
When the fluorophore is excited with polarized light, the emitted light is also polarized. The molecular size is proportional to the polarization of the fluorescence emission.
Test compound is added to the assay plate, left to equilibrate and the anisotropy measured again. Any change in anisotropy is due to competitive binding of compound to HSP90, thereby releasing probe.
Stored at room temperature. • 3) BSA (bovine serum albumen) 10 mg/ml (New England Biolabs # B9001S) • 4) 20 mM probe in 100 % DMSO stock concentration. Stored in the dark at RT. Working concentration is 200 nM diluted in AR water and stored at 4 °C.
1) Add 100µl 1x buffer to wells 11A and 12A (=FP BLNK) 2) Prepare assay mix - all reagents are kept on ice with a lid on the bucket as the probe is light-sensitive.
This gives 2.5 mM {50x} stock cpd - assuming cpds 20 mM. • 4) Repeat for wells A2 to A10. Control in columns 11 and 12. • 5) Transfer 5 µl from row A to row B- not column 12. Mix well. • 6) Transfer 5 µl from row B to row C. […] Add 2 µl of 100mM standard cpd to wells B12 - H12 {is positive control } • 13)The Z' factor is calculated from zero controls and positive wells.
(In general: Polarisation of emitted light reports the rotation of a fluorescent probe.)
In the case of `CCNC(=O)c1noc(-c2cc(Cl)c(O)cc2O)c1-c1ccc(OCCN(CC)CC)cc1` [Example 41q], the IC50 is < 10 µM.
`CCNC(=O)c1noc(-c2cc(Cl)c(O)cc2O)c1-c1ccc(N2CCNCC2)cc1` [Example 26]: the concentration for half-maximal inhibition (IC50) was < 10 µM.
The same measure, in the same setting: next, `CCNC(=O)c1noc(-c2cc(-c3ccccc3)c(O)cc2O)c1-c1ccc(CN2CCOCC2)cc1` [Example 74]: < 10 µM.
As to `CCNC(=O)c1noc(-c2cc(Cl)c(O)cc2O)c1-c1cccnc1` [Example 34], the IC50 was < 10 µM.
Consider `CCNC(=O)c1noc(-c2cc(Cl)c(O)cc2O)c1-c1ccccc1CN1CCN(C)CC1` [Example 41s], for which the concentration for half-maximal inhibition (IC50) was < 10 µM.
As to `CCNC(=O)c1noc(-c2cc(C(C)(C)C)c(O)cc2O)c1-c1ccc(CN2CCOCC2)cc1` [Example 77, 5-(5-tert-Butyl-2,4-dihydroxy-phenyl)-4-(4-morpholin-4-ylmethyl-phenyl)-isoxazole-3-carboxylic acid ethylamide], the IC50 was < 10 µM.
On to `CCNC(=O)c1noc(-c2cc(-c3ccc(F)cc3)c(O)cc2O)c1-c1ccc(F)cc1` [Example 71], for which the IC50 was < 10 µM.
The same measure, in the same setting: to `CCNC(=O)c1noc(-c2cc(Cl)c(O)cc2O)c1-c1ccc(N2CCN(C)CC2)cc1` [Example 36] belongs < 10 µM; to `CCNC(=O)c1noc(-c2cc(Cl)c(O)cc2O)c1-c1ccc(CNCc2ccoc2)cc1` [Example 41a], < 10 µM; to `CCNC(=O)c1noc(-c2cc(Cl)c(O)cc2O)c1-c1cccc(CN2CCOCC2)c1` [Example 45], < 10 µM.
Take `CCNC(=O)c1noc(-c2cc(Cl)c(O)cc2O)c1-c1cccc(CN2CCN(C(C)=O)CC2)c1` [Example 62]: the IC50 is < 10 µM.
Regarding `CCNC(=O)c1noc(-c2cc(Cl)c(O)cc2O)c1-c1ccc(CNCc2cccnc2)cc1` [Example 58], the 50% inhibitory concentration (IC50) is < 10 µM.
Same read-out and setting: next, `CCNC(=O)c1noc(-c2cc(CCc3cccc(F)c3)c(O)cc2O)c1-c1ccc(CN2CCOCC2)cc1` [Example 75]: < 10 µM.
Take `CCNC(=O)c1noc(-c2cc(Cl)c(O)cc2O)c1-c1ccc(CN2CCOCC2)cc1` [Example 41, 5-(5-Chloro-2,4-dihydroxy-phenyl)-4-(4-morpholin-4-ylmethyl-phenyl)-isoxazole-3-carboxylic acid ethylamide]: the concentration for half-maximal inhibition (IC50) was < 10 µM.
For the compound `CCNC(=O)c1noc(-c2cc(Cl)c(O)cc2O)c1-c1ccc(CN2CCC(CCO)CC2)cc1` [Example 51], the 50% inhibitory concentration (IC50) was < 10 µM.
As for `CCNC(=O)c1noc(-c2cc(Cl)c(O)cc2O)c1-c1ccc(F)cc1F` [Example 41e], the 50% inhibitory concentration (IC50) is < 10 µM.
Consider `CCNC(=O)c1noc(-c2cc(Cl)c(O)cc2O)c1-c1ccc(CN(CC)CC)cc1` [Example 49], for which the IC50 is < 10 µM.
Take `Cc1noc(-c2cc(Cl)c(O)cc2O)c1-c1cccc(CN2CCOCC2)c1` [Example 28, 4-Chloro-6-[3-methyl-4-(3-morpholin-4-ylmethyl-phenyl)-isoxazol-5-yl]-benzene-1,3-diol]: the IC50 was < 10 µM.
On to `CCNC(=O)c1noc(-c2cc(CCc3ccccc3)c(O)cc2O)c1-c1ccc(CN2CCOCC2)cc1` [Example 65, 5-(2,4-dihydroxy-5-phenethyl-phenyl)-4-(4-morpholin-4-ylmethylphenyl)-isoxazole-3-carboxylic acid ethylamide hydrochloride], for which the half-inhibitory concentration (IC50) was < 10 µM.
For the compound `CCNC(=O)c1noc(-c2cc(Cl)c(O)cc2O)c1-c1ccc(CN2CCCCC2)c2ccccc12` [Example 41r], the concentration for half-maximal inhibition (IC50) is < 10 µM.
With `CCNC(=O)c1noc(-c2cc(Cl)c(O)cc2O)c1-c1ccc(CNCCS(C)(=O)=O)cc1` [Example 37], the IC50 was < 10 µM.
Consider `CCNC(=O)c1noc(-c2cc(-c3ccc(F)cc3)c(O)cc2O)c1-c1ccc(CN2CCCCC2)cc1` [Example 72], for which the IC50 is < 10 µM.
Consider `CCNC(=O)c1noc(-c2cc(Cl)c(O)cc2O)c1-c1ccc(F)cc1` [Example 27], for which the IC50 is < 10 µM.
As to `COc1ccc(-c2c(-c3cc(Br)c(O)cc3O)noc2C)cc1` [Example 76, 4-Bromo-6-[4-(4-methoxy-phenyl)-5-methyl-isoxazol-3-yl]-benzene-1,3-diol], the half-inhibitory concentration (IC50) is < 10 µM.
As for `CCNC(=O)c1noc(-c2cc(CC)c(O)cc2O)c1-c1ccc(CN2CCN(C)CC2)cc1` [Example 57], the IC50 was < 10 µM.
For the compound `CCNC(=O)c1noc(-c2cc(Cl)c(O)cc2O)c1-c1ccc(CN2CCOCC2)c(F)c1` [Example 41g], the IC50 is < 10 µM.
For the compound `CCNC(=O)c1noc(-c2cc(Cl)c(O)cc2O)c1-c1ccc(OC)cc1` [Example 25, 5-(5-chloro-2,4-dihydroxyphenyl)-4-(4-methoxy-phenyl)-isoxazole-3-carboxylic acid ethylamide], the IC50 was < 10 µM.
On to `CCNC(=O)c1noc(-c2cc(Cl)c(O)cc2O)c1-c1ccc(CN2CCC(CO)CC2)cc1` [Example 50], for which the IC50 is < 10 µM.
Same read-out and setting: next, `CCNC(=O)c1noc(-c2cc(Cl)c(O)cc2O)c1-c1cccc(CN2CCN(C)CC2)c1` [Example 48]: < 10 µM; `CCNC(=O)c1noc(-c2cc(Cl)c(O)cc2O)c1Br` [Example 27a]: < 10 µM; `CCNC(=O)c1noc(-c2cc(CCc3ccc(F)cc3)c(O)cc2O)c1-c1ccc(CN2CCOCC2)cc1` [Example 70]: < 10 µM.

The assay is the same for the next values; noted with them: table names no assay; parent examples tested in fluorescence polarization assay.
Consider `CCNC(=O)c1noc(-c2cc(CCc3cccc(F)c3)c(O)cc2O)c1-c1ccc(CN2CCCCC2)cc1` [Example 75e], for which the IC50 is < 10 µM.
With `CCNC(=O)c1noc(-c2cc(C(C)C)c(O)cc2O)c1-c1ccc(CNCCOC)cc1` [Example 78m], the IC50 was < 10 µM.
`CCNC(=O)c1noc(-c2cc(C(C)C)c(O)cc2O)c1-c1ccc(CNC2CCNCC2)cc1` [Example 78q]: the 50% inhibitory concentration (IC50) is < 10 µM.
Still for that read-out and setting: next, `CCNC(=O)c1noc(-c2cc(-c3ccc(F)cc3)c(O)cc2O)c1-c1ccc(CN2CCN(C)CC2)cc1` [Example 75q]: < 10 µM; `CC(C)NC(=O)c1noc(-c2cc(C(C)C)c(O)cc2O)c1-c1ccc(CNC(C)(C)C)cc1` [Example 78z]: < 10 µM; `CCNC(=O)c1noc(-c2cc(-c3c(C)noc3C)c(O)cc2O)c1-c1ccc(CN2CCCCC2)cc1` [Example 75v]: < 10 µM.
On the same count and under the same terms, to `CCN(CC)Cc1ccc(-c2c(C(=O)NC(C)C)noc2-c2cc(C(C)C)c(O)cc2O)cc1` [Example 78u] belongs < 10 µM; to `CCNC(=O)c1noc(-c2cc(-c3ccccc3F)c(O)cc2O)c1-c1ccc(CN2CCN(C)CC2)cc1` [Example 75g], < 10 µM; to `CC(C)NC(=O)c1noc(-c2cc(C(C)C)c(O)cc2O)c1-c1ccc(CNC2CCCC2)cc1` [Example 78y], < 10 µM.
With `CCNC(=O)c1noc(-c2cc(C(C)C)c(O)cc2O)c1-c1ccc(CN2CCNCC2)cc1` [Example 78p], the IC50 is < 10 µM.
Turning to `CCNC(=O)c1noc(-c2cc(C(C)C)c(O)cc2O)c1-c1ccc(CN2CCC(F)(F)CC2)cc1` [Example 78ac], the IC50 is < 10 µM.
As to `CCNC(=O)c1noc(-c2cc(-c3ccc(F)cc3)c(O)cc2O)c1-c1ccc(CN(CC)CC)cc1` [Example 75r], the concentration for half-maximal inhibition (IC50) was < 10 µM.
For the compound `CCNC(=O)c1noc(-c2cc(-c3ccccc3F)c(O)cc2O)c1-c1ccc(CN2CCCCC2)cc1` [Example 75d], the 50% inhibitory concentration (IC50) is < 10 µM.
On the same count and under the same terms, next, `CCNC(=O)c1noc(-c2cc(C(C)C)c(O)cc2O)c1-c1ccc(CN2CCC(N)CC2)cc1` [Example 78af]: < 10 µM; `CCNC(=O)c1noc(-c2cc(C(C)(C)C)c(O)cc2O)c1-c1ccc(OC)cc1` [Example 77f]: < 10 µM.
In the case of `CC(C)NC(=O)c1noc(-c2cc(C(C)C)c(O)cc2O)c1-c1ccc(CN2CCOCC2)cc1` [Example 78s], the IC50 was < 10 µM.
As to `CCNC(=O)c1noc(-c2cc(C(C)C)c(O)cc2O)c1-c1ccc(CNCC(=O)NC(C)C)cc1` [Example 78ad], the IC50 is < 10 µM.
For `CC(C)NC(=O)c1noc(-c2cc(C(C)C)c(O)cc2O)c1-c1ccc(CN2CCN(C)CC2)cc1` [Example 78t], the IC50 is < 10 µM.
Same read-out and setting: to `CCNC(=O)c1noc(-c2cc(-c3ccccc3C)c(O)cc2O)c1-c1ccc(CN2CCCCC2)cc1` [Example 75m] belongs < 10 µM.
`CCNC(=O)c1onc(-c2cc(Cl)c(O)cc2O)c1-c1ccc(OC)cc1` [Example 76B]: the half-inhibitory concentration (IC50) was < 10 µM.
Consider `CCNC(=O)c1noc(-c2cc(C(C)C)c(O)cc2O)c1-c1ccc(CN(CC)CC)cc1` [Example 78b], for which the IC50 is < 10 µM.
In the case of `CCNC(=O)c1noc(-c2cc(-c3ccccc3C)c(O)cc2O)c1-c1ccc(CN2CCN(C)CC2)cc1` [Example 75s], the half-maximal inhibitory concentration (IC50) is < 10 µM.
With `CC(C)NC(=O)c1noc(-c2cc(C(C)C)c(O)cc2O)c1-c1ccc(CNC2CCCCC2)cc1` [Example 78w], the half-maximal inhibitory concentration (IC50) was < 10 µM.
Turning to `CCNC(=O)c1noc(-c2cc(C(C)(C)C)c(O)cc2O)c1-c1ccc(CN(CC)CC)cc1` [Example 77b], the IC50 is < 10 µM.
Regarding `CCNC(=O)c1noc(-c2cc(-c3ccccc3)c(O)cc2O)c1-c1ccc(CN(CC)CC)cc1` [Example 75p], the 50% inhibitory concentration (IC50) was < 10 µM.
On the same count and under the same terms, next, `CCNC(=O)c1noc(-c2cc(CCc3cccc(F)c3)c(O)cc2O)c1-c1ccc(CN(CC)CC)cc1` [Example 75h]: < 10 µM.
